According to US20150079000A1, “Labelled Quinoxaline Derivatives as Multimodal Radiopharmaceuticals and Their Precursors” (INSTITUT NATIONAL DE LA SANTET DE LA RECHERCHE MEDICALE, priority 2012, published 2015):

Experiments:
[1] = radiochemical stability of the radiotracer after preparation; format: physicochemical
[2] = system: B16 murine melanoma tumours; experiment: Ex vivo biodistribution of [18F]-labelled compounds; format: in vivo, C57BL/6J mice
Description: All our studies were performed in accordance with French and European Economic Community (86-609, EEC) guidelines for care of laboratory animals. Protocols were performed under the authorization of the French Direction des Services Veterinaires (authorization no. CE 86-12). Male C57BL/6J mice were originating from Charles River laboratories and maintained at 21° C. with a 12 h/12 h light/dark cycle, fed with a breeding diet (diet A04 from Safe, Villemoisson, France) and received water ad libitum. For transplantation B16BL6 cell suspension were grown in a monolayer culture to confluence, after which cells were trypsinized, washed with phosphate buffer saline (PBS) and they were resuspended in PBS. Mice were anesthetized by isoflurane (4% for induction and 2±0.5% for maintaining in oxygen flux) inhalation. The primary tumour model was induced by subcutaneous injection of 3×10^5 melanoma B16B16 cells in 0.1 mL on the right shoulder of mice.
Ex vivo biodistribution studies: An ex vivo biodistribution study was performed for better comparison of [^18F](1) and [^18F](5). Experimentations were undertaken at day-10 or day-14 after cell inoculation (n=3-6/group). […] Tumours and major organs and tissues were promptly excised, harvested, weighted and their radioactivity counted using a calibrated γ-counter with a 400 to 600 keV energy window. After radioactive decay correction, results were expressed as percentage of injected dose per gram of tissue (% ID/g).

In the case of `CCN(CCNC(=O)c1cnc2cc(I)ccc2n1)CCOCCOCCOCC[18F]` [[^18F](1)], the “radiochemically stable at room temperature after preparation” value [1] is reported as “at least 24 h”, the “% ID/g (tumour)” value ([2]; 1 h p.i.) is reported as 14.05 ± 1.42 % ID/g and the “% ID/g Blood” value ([2]; 1 h p.i.) is reported as 1.42 ± 0.32 % ID/g. The “% ID/g Bones” value ([2]; 1 h p.i.) was 1.40±0.10 % ID/g, the “% ID/g Brain” value ([2]; 1 h p.i.) was 1.82 ± 0.08 % ID/g and the “% ID/g Ceacum” value ([2]; 1 h p.i.) was 7.27 ± 0.62 % ID/g. For the same compound, the “% ID/g Colon + faeces” value ([2]; 1 h p.i.) was 7.17 ± 2.93 % ID/g, the “% ID/g Eyes” value ([2]; 1 h p.i.) was 18.36 ± 4.74 % ID/g and the “% ID/g Heart” value ([2]; 1 h p.i.) was 2.72 ± 0.18 % ID/g. The “% ID/g Kidney” value ([2]; 1 h p.i.) was 3.46 ± 0.53 % ID/g, the “% ID/g Liver” value ([2]; 1 h p.i.) was 2.56 ± 0.22 % ID/g and the “% ID/g Lung” value ([2]; 1 h p.i.) was 1.86 ± 0.15 % ID/g. The “% ID/g Muscle” value ([2]; 1 h p.i.) was 1.17 ± 0.12 % ID/g, the “% ID/g Pancreas” value ([2]; 1 h p.i.) was 2.09 ± 0.42 % ID/g and the “% ID/g Skin” value ([2]; 1 h p.i.) was 1.44 ± 0.19 % ID/g. For the same compound, the “% ID/g Small intestine” value ([2]; 1 h p.i.) was 7.58 ± 1.80 % ID/g, the “% ID/g Spleen” value ([2]; 1 h p.i.) was 3.72 ± 1.49 % ID/g and the “% ID/g Stomach” value ([2]; 1 h p.i.) was 4.41 ± 1.36 % ID/g. For the same compound, the “TBR Tumour-to-Blood Ratio” value ([2]; 1 h p.i.) was 10.24 ± 2.83, the “TBoR Tumour-to-Bone Ratio” value ([2]; 1 h p.i.) was 10.11 ± 1.87 and the “TMR Tumour-to-Muscle Ratio” value ([2]; 1 h p.i.) was 12.12 ± 2.29. The “% ID/g (tumour)” value ([2]; 2 h p.i.) was 13.07 ± 1.22 % ID/g, the “% ID/g Blood” value ([2]; 2 h p.i.) was 1.12 ± 0.24 % ID/g and the “% ID/g Bones” value ([2]; 2 h p.i.) was 1.96 ± 0.51 % ID/g. The “% ID/g Brain” value ([2]; 2 h p.i.) was 1.39 ± 0.25 % ID/g, the “% ID/g Ceacum” value ([2]; 2 h p.i.) was 8.94 ± 1.78 % ID/g and the “% ID/g Colon + faeces” value ([2]; 2 h p.i.) was 6.05 ± 1.72 % ID/g. For the same compound, the “% ID/g Eyes” value ([2]; 2 h p.i.) was 18.17 ± 3.15 % ID/g, the “% ID/g Heart” value ([2]; 2 h p.i.) was 2.14 ± 0.33 % ID/g and the “% ID/g Kidney” value ([2]; 2 h p.i.) was 2.18 ± 0.43 % ID/g. For the same compound, the “% ID/g Liver” value ([2]; 2 h p.i.) was 1.88 ± 0.34 % ID/g, the “% ID/g Lung” value ([2]; 2 h p.i.) was 1.65 ± 0.11 % ID/g and the “% ID/g Muscle” value ([2]; 2 h p.i.) was 0.92 ± 0.15 % ID/g. The “% ID/g Pancreas” value ([2]; 2 h p.i.) was 1.33 ± 0.28 % ID/g, the “% ID/g Skin” value ([2]; 2 h p.i.) was 1.51 ± 0.53 % ID/g and the “% ID/g Small intestine” value ([2]; 2 h p.i.) was 4.28 ± 1.18 % ID/g. For the same compound, the “% ID/g Spleen” value ([2]; 2 h p.i.) was 2.88 ± 2.11 % ID/g, the “% ID/g Stomach” value ([2]; 2 h p.i.) was 2.48 ± 0.88 % ID/g and the “TBR Tumour-to-Blood Ratio” value ([2]; 2 h p.i.) was 12.19 ± 3.32. For the same compound, the “TBoR Tumour-to-Bone Ratio” value ([2]; 2 h p.i.) was 7.13 ± 2.21, the “TMR Tumour-to-Muscle Ratio” value ([2]; 2 h p.i.) was 14.46 ± 2.62 and the “% ID/g (tumour)” value ([2]; 3 h p.i.) was 11.55±1.24 % ID/g. The “% ID/g Blood” value ([2]; 3 h p.i.) was 0.80 ± 0.07 % ID/g, the “% ID/g Bones” value ([2]; 3 h p.i.) was 3.27 ± 0.70 % ID/g and the “% ID/g Brain” value ([2]; 3 h p.i.) was 1.37 ± 0.35 % ID/g. The “% ID/g Ceacum” value ([2]; 3 h p.i.) was 10.79 ± 1.54 % ID/g, the “% ID/g Colon + faeces” value ([2]; 3 h p.i.) was 8.09 ± 5.04 % ID/g and the “% ID/g Eyes” value ([2]; 3 h p.i.) was 17.96 ± 2.73 % ID/g. The “% ID/g Heart” value ([2]; 3 h p.i.) was 2.32 ± 0.50 % ID/g, the “% ID/g Kidney” value ([2]; 3 h p.i.) was 2.19 ± 0.36 % ID/g and the “% ID/g Liver” value ([2]; 3 h p.i.) was 1.99 ± 0.45 % ID/g. For the same compound, the “% ID/g Lung” value ([2]; 3 h p.i.) was 1.60 ± 0.09 % ID/g, the “% ID/g Muscle” value ([2]; 3 h p.i.) was 0.81 ± 0.10 % ID/g and the “% ID/g Pancreas” value ([2]; 3 h p.i.) was 1.33 ± 0.35 % ID/g. For the same compound, the “% ID/g Skin” value ([2]; 3 h p.i.) was 1.05 ± 0.12 % ID/g, the “% ID/g Small intestine” value ([2]; 3 h p.i.) was 3.91 ± 1.05 % ID/g and the “% ID/g Spleen” value ([2]; 3 h p.i.) was 1.87 ± 0.38 % ID/g. For the same compound, the “% ID/g Stomach” value ([2]; 3 h p.i.) was 2.81 ± 2.23 % ID/g, the “TBR Tumour-to-Blood Ratio” value ([2]; 3 h p.i.) was 14.43±1.75 and the “TBoR Tumour-to-Bone Ratio” value ([2]; 3 h p.i.) was 3.70 ± 1.17. For the same compound, the “TMR Tumour-to-Muscle Ratio” value ([2]; 3 h p.i.) was 14.46±3.06 and the in vivo defluorination ([2]; 3 h p.i.) was “Partial in vivo defluorinations”.
